What was measured:
[1] = BPBBT solution in 5% THF at the same concentration (50 μM); stated as known; cited from earlier work
[2] = 808 nm laser, 3 min irradiation per cycle
Method: The nanoparticle solution filled with the BPBBT dot was fixed and irradiated by using an 808 nm laser. Meanwhile, the temperature of the solution was monitored in real time by using a thermal imaging camera. The laser was turned off after 3 min of irradiation, and the laser was turned on again when the temperature was recovered to the initial temperature. In this way, 5 cycles were repeated, and whether the highest temperature of each cycle was the same or not was observed so as to judge the stability of photothermal conversion.

maximum temperature [2]: about 48 °C
Substance: 4,8-bis[4-(N, N-bis(4-octyloxyphenyl)amino)phenyl]benzo[1,2-c:4,5-c′]bis([1,2,5]thiadiazole) [BPBBT]
photothermal conversion efficiency [1]: 22%

Source: patent US20240398999A1, “DC BIOMIMETIC MEMBRANE NANOPARTICLE LOADED WITH NIR-II AIE DYE, PREPARATION METHOD THEREFOR AND USE THEREOF” (SHENZHEN INSTITUTES OF ADVANCED TECHNOLOGY CHINESE ACADEMY …, priority 2023, published 2024)
